One data set deals with migraine attacks. The following applies: cited from earlier work.
The next data set has as its system patients having migraine. Kind of data set: Multi-centric double blind clinical studies (placebo, flunarizine, internal crossover). The class given is in vivo, human. An excerpt:
The objective of this study was to evaluate the efficacy and tolerability of the formulation as a prophylactic monotherapy in comparison with a placebo in patients having migraine. Patients were included in the study based on the following criteria: those aged between 15–60 years, diagnosed as having migraine as per International Headache Society Classification (IHSC) guidelines; those with at least two or more attacks of acute migraine per month for at least 6 months; women of child bearing age who take contraceptive measures during the study and those taking no other prophylactic therapy during the study period or alteast one month prior to the study. A detailed ENT examination was conducted prior to the study to rule out any nasal pathology. A written consent was taken from each patient.
Patients with more than 8 attacks a month, unstable angina, hypertension, cardiac failure, severe left ventricular failure, atrophic rhinitis, nasal polyposis, patients taking any prophylactic medication within 1 month of the study, patients with psychiatric disorders, pregnant/nursing women, patients with glaucoma and Parkinson's disease were excluded from the study.
This study, a multi-centric, randomised placebo controlled double blind (test formulation versus matched saline placebo) was conducted at five centres. A non-randomised single blind (test formulation versus flunarizine) study was conducted at two of the five centres. An internal crossover study was done at three of the five centres by cross over of patients in the test formulation and placebo groups.
The duration of study was eight months. The period of treatment was three months. Patients later on were crossed over internally (test formulation and placebo) for further treatment of three months and a follow-up period of two months. One drop of the test formulation was administered into each nostril two times a day, once in the morning and once in the evening. One drop of placebo was administrated into each nostril, once in the morning and once in the evening. flurnarizine tablet (10 mg) was administered once a day orally.
The enrolled patients underwent a general examination, E.N.T. examination and laboratory tests. Each patient was given a diary to record the details of the migraine, episodes, any adverse events(pre- and post-treatment) as well as details of rescue modification taken, if any. The same was also recorded by the investigator.
Patients were instructed on how to record the details of various visual symptoms, nausea, vomiting and headache (viz. time of onset, relief, and any additional treatment) and grade them according to severity (4 point scale) in diary. The recorded observations in the diary were reviewed every month of the study period.
The efficacy of the prophylactic treatment was evaluated on the following basis: • At least 50% reduction in the intensity or duration of migraine attacks (mean duration of migraine in hours) per month at the end of 12 weeks of treatment, compared to baseline. • Reduction in the frequency of attack per month using test formulation and flunarizine compared to placebo (>or =50%). • Consumption of drugs for symptomatic relief of breakthrough attacks in the three groups. • At least 50% or more reduction of attack in patients who respond to test formulation compared to the reduction of attack in patients given placebo. • The safety and patient compliance of test formulation was assessed on the basis of incidence and severity of side effects in each groups compared to placebo and number of drop outs in each group compared to placebo. Results
The results of the trial was statistically analysed based on the following parameters:
• 1. Atleast 50% reduction in the frequency of migraine attacks • 2. Atleast 50% reduction in the duration of migraine attacks • 3. Reduction in the severity of migraine attacks [graded as none (0), mild (1), moderate (2) and severe (3) • 4. […]

Data set [1] is described as follows: Colouration of the formulation on storage. The class given is physicochemical. The following applies: 3 months. An excerpt: To prevent any colouration during storage of the formulation it is preferable to add an anti-oxidant to prevent the colouration. Sodium metabisulfite is preferably used. When this anti-oxidant is not added the colour of the solution changes from initial colourless to straw yellow to dark yellow in one month's time and to dark brown in three months. Addition of sodium bisulfite arrests the change in colouration. This can be used in a concentration ranging from 0.020% to 0.080% wt/vol of the composition. A range of 0.04 to 0.05% being the most preferred
Tabulation of the colour change as a function of the concentration of the sodium meta bisulfite concentration is given below in Table-III.
The importance of purging the entire system with nitrogen reflects in the colouration to the product. When no nitrogen is bubbled in to the system the colour of the formulation changes to yellow within 3 months, indicating degradation. In batches where the system is constantly kept under nitrogen atmosphere, no change in colouration is observed even after 3 months.

The test system of another data set is nasal mucosa. Kind of data set: Nasal mucosal irritation as a function of additives in the formulation. The class given is in vivo. The following applies: used as the preservative of the aqueous formulation.
The mark [2] stands for this setting: end of third follow-up, comparison with flunarizine.

Where a name gives a salt, the structure may show the parent alone.

For `CN1C[C@H](C(=O)N[C@]2(C)O[C@@]3(O)[C@@H]4CCCN4C(=O)[C@H](Cc4ccccc4)N3C2=O)C=C2c3cccc4[nH]cc(c34)C[C@H]21` [Ergotamine, Ergotamine tartrate], in the data set with migraine attacks (over that observed on use of NSAIDs), the “incidence of side effects” value is 17–41%.

Regarding `Fc1ccc(C(c2ccc(F)cc2)N2CCN(C/C=C/c3ccccc3)CC2)cc1` [Flunarizine, flunarizine], the “DROP OUT RATE (%)” value in the data set with patients having migraine (3 months treatment) came out at 43%. In the data set with patients having migraine (at each follow-up), the “Reduction in mean frequency of attacks” value is “significant difference reduction in the mean frequency of attacks at the end each follow up”. Besides, the “Reduction in the duration of attacks” value in the data set with patients having migraine (at the follow-ups) was “significant reduction in the duration of attacks only at the end of the second and third follow-up”. Also, in the data set with patients having migraine (end of third follow up, comparison with flunarizine), the “Patients with ≧50% REDUCTION IN DURATION” value is on record as 52.0%. For the same molecule, in the data set with patients having migraine (setting [2]), the “Patients with ≧50% REDUCTION IN DISABILITY” value was found to be 69.6% and the “Patients with ≧50% REDUCTION IN SEVERITY” value was 42.3%. For the same molecule, the “Patients with ≧50% REDUCTION IN FREQUENCY” value with patients having migraine (third follow up, comparison with flunarizine) is 81.5%.

For `O=S([O-])S(=O)(=O)[O-].[Na+].[Na+]` [Sodium meta bisulfite], the Change in colour result in data set [1] (sodium meta bisulfite 0.020 % w/v) is “Colourless→light brown (3 months)”; in data set [1] (sodium meta bisulfite 0.040 % w/v), “Colourless→light Yellow (3 months)”; in data set [1] (sodium meta bisulfite 0.050 % w/v), “Colourless→very light Yellow (3 months)”; in data set [1] (sodium meta bisulfite 0.075 % w/v) it was “Remains Colourless (3 months)”; in data set [1] (sodium meta bisulfite 0.080 % w/v), “Remains Colourless (3 months)”.

`CNS(=O)(=O)Cc1ccc2[nH]cc(CCN(C)C)c2c1` [Sumatriptan, sumatriptan]: in the data set on migraine attacks (in one hour, placebo less than 27%), the “relief to migraine attacks” value was 70%.

As for benzalkonium chloride, the Mucosal irritation result with nasal mucosa is “causes mucosal irritation”.

The values above are taken from patent US7632528B1, “Antimigraine combination comprising Sapindus and Emblica extracts” (Lupin Limited, priority 2000, dated 2009).
